In ChEMBL document CHEMBL6087412, “Discovery of cloxiquine derivatives as potent HDAC inhibitors for the treatment of melanoma via activating PPARγ” (Eur J Med Chem, 2025):
The source made the active and inactive calls. The calls are words filed in the database; no cut-off is given here.

What was measured:
[1] = tested on: SK-MEL-5; experiment: Induction of apoptosis in human SK-MEL-5 cells assessed as necrotic cells at 5 uM incubated for 48 hrs by Annexin V-APC/7-AAD staining based flow cytometric analysis (reference value: 1.05 %); type: functional
[2] = tested on: SK-MEL-5; experiment: Induction of apoptosis in human SK-MEL-5 cells assessed as viable cells at 5 uM incubated for 48 hrs by Annexin V-APC/7-AAD staining based flow cytometric analysis (reference value: 95.77 %); type: functional; conditions: for viability at 5 µM: Homo sapiens, SK-MEL-5, read-out: Activity
[3] = tested on: SK-MEL-5; experiment: Induction of cell cycle arrest in human SK-MEL-5 cells assessed as accumulation of cells at G2/M phase at 5 uM incubated for 48 hrs by propidium iodide staining based flow cytometry (reference value: 8.36 %); type: functional
[4] = tested on: SK-MEL-5; experiment: Induction of apoptosis in human SK-MEL-5 cells assessed as early apoptotic cells at 5 uM incubated for 48 hrs by Annexin V-APC/7-AAD staining based flow cytometric analysis (reference value: 2.29 %); type: functional
[5] = tested on: SK-MEL-5; experiment: Induction of cell cycle arrest in human SK-MEL-5 cells assessed as accumulation of cells at S phase at 5 uM incubated for 48 hrs by propidium iodide staining based flow cytometry (reference value: 25.36 %); type: functional
[6] = tested on: SK-MEL-5; experiment: cells; conditions: Homo sapiens, SK-MEL-5, 72 h
Description: Antiproliferative activity against human SK-MEL-5 cells assessed as inhibition of cell growth incubated for 72 hrs by MTT assay

[7] = tested on: SK-MEL-5; experiment: Induction of apoptosis in human SK-MEL-5 cells assessed as late apoptotic cells at 5 uM incubated for 48 hrs by Annexin V-APC/7-AAD staining based flow cytometric analysis (reference value: 0.9 %); type: functional
[8] = tested on: SK-MEL-5; experiment: Induction of cell cycle arrest in human SK-MEL-5 cells assessed as accumulation of cells at G0/G1 phase at 5 uM incubated for 48 hrs by propidium iodide staining based flow cytometry (reference value: 66.27 %); type: functional
[9] = tested on: A-375; experiment: cells; conditions: Homo sapiens, A-375, 72 h
Description: Antiproliferative activity against human A-375 cells assessed as inhibition of cell growth incubated for 72 hrs by MTT assay

[10] = in vitro; conditions: human, MRC5 cells
Description: Antiproliferative activity against human MRC5 cells assessed as inhibition of cell growth incubated for 72 hrs by MTT assay

[11] = tested on: SK-MEL-5; experiment: Antitumor activity against human SK-MEL-5 cells xenografted with BALB/c mouse assessed as tumor growth inhibition at 30 mg/kg,ip administrated for 21 consecutive days; type: functional; conditions: read-out: TGI
[12] = tested on: SK-MEL-5; experiment: Induction of cell cycle arrest in human SK-MEL-5 cells assessed as accumulation of cells at G2/M phase at 1 uM incubated for 48 hrs by propidium iodide staining based flow cytometry (reference value: 8.36 %); type: functional
[13] = tested on: SK-MEL-5; experiment: Inhibition of glycolysis in human SK-MEL-5 cells assessed as reduction in lactate production at 2 uM incubated for 48 hrs in presence of GW9662 by chekineTM micro lactate Assay; type: functional, cell-based
[14] = Toxicity in BALB/c mouse xenografted with human SK-MEL-5 cells assessed as body weight loss at 30 mg/kg,ip administrated for 21 consecutive days; type: organism-based; conditions: in vivo
[15] = tested on: SK-MEL-5; experiment: Induction of apoptosis in human SK-MEL-5 cells assessed as late apoptotic cells at 1 uM incubated for 48 hrs by Annexin V-APC/7-AAD staining based flow cytometric analysis (reference value: 0.9 %); type: functional
[16] = tested on: SK-MEL-5; experiment: Induction of apoptosis in human SK-MEL-5 cells assessed as late apoptotic cells at 0.2 uM incubated for 48 hrs by Annexin V-APC/7-AAD staining based flow cytometric analysis (reference value: 0.9 %); type: functional
[17] = tested on: SK-MEL-5; experiment: Induction of apoptosis in human SK-MEL-5 cells assessed as necrotic cells at 1 uM incubated for 48 hrs by Annexin V-APC/7-AAD staining based flow cytometric analysis (reference value: 1.05 %); type: functional
[18] = tested on: SK-MEL-5; experiment: Antiproliferative activity against human SK-MEL-5 cells assessed as inhibition of cell growth incubated for 72 hrs in presence of GW9662 by MTT assay; type: functional, cell-based
[19] = tested on: SK-MEL-5; experiment: Induction of apoptosis in human SK-MEL-5 cells assessed as viable cells at 0.2 uM incubated for 48 hrs by Annexin V-APC/7-AAD staining based flow cytometric analysis (reference value: 95.77 %); type: functional; conditions: read-out: Activity
[20] = tested on: SK-MEL-5; experiment: Induction of cell cycle arrest in human SK-MEL-5 cells assessed as accumulation of cells at S phase at 0.2 uM incubated for 48 hrs by propidium iodide staining based flow cytometry (reference value: 25.36 %); type: functional
[21] = biological target: Histone deacetylase 4 (Homo sapiens, UniProt P56524); experiment: Inhibition of HDAC4 (unknown origin) using Ac-Leu-Gly-Lys(Tfa)-AMC as substrate by spectramax microplate reader analysis
[22] = tested on: SK-MEL-5; experiment: Antiproliferative activity against human SK-MEL-5 cells assessed as upregulation of PPARgamma expression incubated for 48 hrs by Western blotting analysis; type: functional, cell-based
[23] = tested on: SK-MEL-5; experiment: Inhibition of cell invasion in human SK-MEL-5 cells at 0.2 to 5 uM incubated for 48 hrs by transwell assay; type: functional, cell-based; conditions: dose 0.2-5 µM
[24] = tested on: SK-MEL-5; experiment: Induction of cell cycle arrest in human SK-MEL-5 cells assessed as accumulation of cells at S phase at 1 uM incubated for 48 hrs by propidium iodide staining based flow cytometry (reference value: 25.36 %); type: functional
[25] = tested on: SK-MEL-5; experiment: Inhibition of cell migration in human SK-MEL-5 cells incubated for 24 hrs by scratch assay; type: functional, cell-based
[26] = tested on: SK-MEL-5; experiment: Induction of cell cycle arrest in human SK-MEL-5 cells assessed as accumulation of cells at G0/G1 phase at 1 uM incubated for 48 hrs by propidium iodide staining based flow cytometry (reference value: 66.27 %); type: functional
[27] = tested on: SK-MEL-5; experiment: Induction of apoptosis in human SK-MEL-5 cells assessed as early apoptotic cells at 0.2 uM incubated for 48 hrs by Annexin V-APC/7-AAD staining based flow cytometric analysis (reference value: 2.29 %); type: functional
[28] = tested on: SK-MEL-5; experiment: Induction of apoptosis in human SK-MEL-5 cells assessed as necrotic cells at 0.2 uM incubated for 48 hrs by Annexin V-APC/7-AAD staining based flow cytometric analysis (reference value: 1.05 %); type: functional
[29] = tested on: SK-MEL-5; experiment: Induction of apoptosis in human SK-MEL-5 cells assessed as viable cells at 1 uM incubated for 48 hrs by Annexin V-APC/7-AAD staining based flow cytometric analysis (reference value: 95.77 %); type: functional; conditions: read-out: Activity
[30] = tested on: SK-MEL-5; experiment: Induction of apoptosis in human SK-MEL-5 cells assessed as early apoptotic cells at 1 uM incubated for 48 hrs by Annexin V-APC/7-AAD staining based flow cytometric analysis (reference value: 2.29 %); type: functional
[31] = tested on: SK-MEL-5; experiment: Induction of cell cycle arrest in human SK-MEL-5 cells assessed as accumulation of cells at G2/M phase at 0.2 uM incubated for 48 hrs by propidium iodide staining based flow cytometry (reference value: 8.36 %); type: functional
[32] = tested on: SK-MEL-5; experiment: Induction of cell cycle arrest in human SK-MEL-5 cells assessed as accumulation of cells at G0/G1 phase at 0.2 uM incubated for 48 hrs by propidium iodide staining based flow cytometry (reference value: 66.27 %); type: functional

Sequence of Histone deacetylase 4 (P56524 whole entry): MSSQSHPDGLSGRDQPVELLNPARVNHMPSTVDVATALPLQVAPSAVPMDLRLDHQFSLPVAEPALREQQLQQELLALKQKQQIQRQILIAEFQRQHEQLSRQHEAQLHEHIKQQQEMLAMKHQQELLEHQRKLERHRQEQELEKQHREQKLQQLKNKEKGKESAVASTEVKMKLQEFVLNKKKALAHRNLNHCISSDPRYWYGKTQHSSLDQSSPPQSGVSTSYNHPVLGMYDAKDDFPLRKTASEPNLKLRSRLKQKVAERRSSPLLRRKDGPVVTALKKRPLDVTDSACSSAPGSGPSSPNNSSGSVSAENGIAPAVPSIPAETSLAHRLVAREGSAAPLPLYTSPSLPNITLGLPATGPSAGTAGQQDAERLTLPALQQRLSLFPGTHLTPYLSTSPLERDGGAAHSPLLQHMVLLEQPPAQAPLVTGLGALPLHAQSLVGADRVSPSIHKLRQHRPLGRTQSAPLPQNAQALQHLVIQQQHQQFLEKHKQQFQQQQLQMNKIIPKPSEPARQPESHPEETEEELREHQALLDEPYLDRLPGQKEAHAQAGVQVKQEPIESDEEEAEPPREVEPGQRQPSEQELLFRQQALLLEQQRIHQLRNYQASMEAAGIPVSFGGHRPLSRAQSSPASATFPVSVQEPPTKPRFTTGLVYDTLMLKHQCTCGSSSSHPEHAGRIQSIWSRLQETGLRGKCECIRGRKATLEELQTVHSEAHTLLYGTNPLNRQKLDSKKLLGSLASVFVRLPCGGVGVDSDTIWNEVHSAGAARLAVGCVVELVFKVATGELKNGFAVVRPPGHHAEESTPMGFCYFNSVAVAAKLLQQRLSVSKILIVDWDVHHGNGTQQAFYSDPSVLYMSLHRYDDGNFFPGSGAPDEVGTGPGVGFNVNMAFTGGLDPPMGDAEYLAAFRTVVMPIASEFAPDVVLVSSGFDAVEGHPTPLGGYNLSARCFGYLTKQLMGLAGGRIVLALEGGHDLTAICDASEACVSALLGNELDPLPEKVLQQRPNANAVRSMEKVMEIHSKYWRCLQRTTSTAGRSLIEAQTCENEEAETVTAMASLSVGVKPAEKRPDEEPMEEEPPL

`O=C(CCCCCCC(=O)Nc1ccccc1)NO` [VORINOSTAT] gave an Activity [1] of 2.39%, an Activity [2] of 57.12% and an Activity [3] of 19.87%. For the same molecule, the Activity [4] was 32.5%, the Activity [5] was 24.22% and the IC50 [6] was 2.16 µM. For the same molecule, the Activity [7] was 7.99% and the Activity [8] was 55.91%.
In the case of `O=C(CCCCCOc1ccc(Cl)c2cccnc12)NO`, the IC50 [9] is reported as 15 µM, the IC50 at 72 h [10] is reported as 42.1 µM and the IC50 [6] is reported as 13.7 µM.
In the case of `O=C(CCCCOc1ccc(Cl)c2cccnc12)NO`, the IC50 [9] is reported as 22.2 µM, the IC50 at 72 h [10] is reported as greater than 50 µM and the IC50 [6] is reported as 21.6 µM.
Molecule `O=C(CCCCOc1cccc2cccnc12)NO` has an IC50 [9] greater than 50 µM, an IC50 at 72 h [10] greater than 50 µM and an IC50 [6] greater than 50 µM.
`Oc1ccc(Cl)c2cccnc12` [CLOXYQUIN] showed an IC50 [9] of 6.08 µM, an Activity [1] of 3.08% and an IC50 at 72 h [10] of 20.4 µM. For the same molecule, the viability at 5 µM [2] was 85.1%, the Activity [3] was 13.48% and the Activity [4] was 6.96%. The Activity [5] was 27.67%, the IC50 [6] was 5 µM and the Activity [7] was 4.88%. The inhibition in vivo at 30 mg/kg [11] was 24.3% and the Activity [8] was 58.85%.
For `O=C(/C=C/c1ccc(COc2ccc(Cl)c3cccnc23)cc1)NO`, the IC50 [9] was 3.45 µM, the IC50 at 72 h [10] was 6.94 µM and the IC50 [6] was 3.7 µM.
For `O=C(CCCCCOc1cccc2cccnc12)NO`, the IC50 [9] was 13.8 µM, the IC50 at 72 h [10] was 28.1 µM and the IC50 [6] was 12.7 µM.
Molecule `O=C(CCc1ccc(COc2ccc(Cl)c3cccnc23)cc1)NO` has an IC50 [9] of 22.7 µM, an IC50 at 72 h [10] greater than 50 µM and an IC50 [6] of 17.4 µM.
Work on `O=C(CCCOc1cccc2cccnc12)NO` yielded an IC50 [9] of 32.8 µM, an IC50 at 72 h [10] greater than 50 µM and an IC50 [6] of 29.8 µM.
In the case of `O=C(NO)c1ccccc1COc1cccc2cccnc12`, the IC50 [9] is reported as greater than 50 µM, the IC50 at 72 h [10] is reported as greater than 50 µM and the IC50 [6] is reported as 46.6 µM.
With `O=C(NO)c1ccc(CCOc2ccc(Cl)c3cccnc23)cc1` the IC50 [9] was 11.9 µM, the IC50 at 72 h [10] was 23.3 µM and the IC50 [6] was 10.8 µM.
Work on `O=C(NO)c1ccc(COc2cccc3cccnc23)cc1` yielded an IC50 [9] of 15.1 µM, an IC50 at 72 h [10] of 18.4 µM and an IC50 [6] of 15 µM.
`O=C(NO)c1cccc(COc2ccc(Cl)c3cccnc23)c1` showed an IC50 [9] of 29.5 µM, an IC50 at 72 h [10] greater than 50 µM and an IC50 [6] of 24.2 µM.
With `O=C(Cc1ccc(COc2cccc3cccnc23)cc1)NO` the IC50 [9] was greater than 50 µM, the IC50 at 72 h [10] was greater than 50 µM and the IC50 [6] was greater than 50 µM.
`O=C(NO)c1cccc(COc2cccc3cccnc23)c1` showed an IC50 [9] greater than 50 µM, an IC50 at 72 h [10] greater than 50 µM and an IC50 [6] of 41.5 µM.
For `O=C(NO)c1ccc(CCOc2cccc3cccnc23)cc1`, the IC50 [9] was 13.3 µM, the IC50 at 72 h [10] was 29 µM and the IC50 [6] was 13.7 µM.
With `O=C(CCCCCCOc1cccc2cccnc12)NO` the IC50 [9] was 1.2 µM, the Activity [12] was 16% and the inhibition [13] was “inactive”. For the same molecule, the Activity [1] was 2.39%, the Activity [14] was “Non-toxic” and the IC50 at 72 h [10] was 3.64 µM. The Activity [15] was 8.03%, the Activity [16] was 2.81% and the Activity [17] was 4.41%. The Activity [18] was “inactive”, the viability at 0.2 µM [19] was 92.7% and the viability at 5 µM [2] was 49.9%. It also gave an Activity [3] of 22.01%, an Activity [20] of 23.77% and an IC50 [21] of 19.3 µM. The Activity [22] was “Dose-dependent-effect”, the inhibition [23] was “Active” and the Activity [24] was 24.55%. For the same molecule, the Activity [4] was 35.15%, the Activity [5] was 27.75% and the inhibition [25] was “Dose-dependent-effect”. For the same molecule, the IC50 [6] was 0.93 µM, the Activity [26] was 59.45% and the Activity [27] was 3.68%. The Activity [7] was 12.52%, the Activity [28] was 0.85% and the viability at 1 µM [29] was 77.8%. For the same molecule, the Activity [30] was 9.75%, the Activity [31] was 11.27% and the inhibition in vivo at 30 mg/kg [11] was 50.2%. The Activity [8] was 50.23% and the Activity [32] was 64.96%.
Work on `O=C(NO)c1ccc(COc2ccc(Cl)c3cccnc23)cc1` yielded an IC50 [9] greater than 50 µM, an IC50 at 72 h [10] greater than 50 µM and an IC50 [6] greater than 50 µM.
Molecule `O=C(CCCCCCOc1ccc(Cl)c2cccnc12)NO` has an IC50 [9] of 3.68 µM, an IC50 at 72 h [10] of 8.07 µM and an IC50 [6] of 3.47 µM.
In the case of `O=C(CCCOc1ccc(Cl)c2cccnc12)NO`, the IC50 [9] is reported as 6.57 µM, the IC50 at 72 h [10] is reported as 19.5 µM and the IC50 [6] is reported as 6.27 µM.
`O=C(NO)c1ccccc1COc1ccc(Cl)c2cccnc12` showed an IC50 [9] of 9.78 µM, an IC50 at 72 h [10] of 21.3 µM and an IC50 [6] of 8.53 µM.
In the case of `O=C(/C=C/c1ccc(COc2cccc3cccnc23)cc1)NO`, the IC50 [9] is reported as 3.72 µM, the IC50 at 72 h [10] is reported as 7.34 µM and the IC50 [6] is reported as 3.67 µM.
